Assay results reported in patent publication US7084161B2, “Method for treating inflammatory diseases or conditions” (SmithKlineBeecham Corporation, priority 2000, dated 2006).

System: LPS-induced INOS activity in J774 cells
Assay: LPS-induced iNOS activity in J774 cells (DAF-2 fluorescence)
Format: cell-based, mouse
Conditions: pre-treatment 6 hours prior to and 24 hours subsequent to LPS (typically 1 ug/ml), at sub-nanomolar—nanomolar concentrations
Description: In this assay system, lipopolysaccharide (LPS) was used to induce the expression of INOS in the mouse macrophage cell line, J774. […] This reduction in INOS activity correlated with a reduction in LPS-induced INOS mRNA expression.
Specifically, LPS-induced INOS activity was measured using the following assay conditions. J774 cells were seeded at a density of […] per well, in a black, clear-bottomed, 96 well plate, 24 hours prior to use. The cell culture and the drug dilutions were carried out in complete media, which consisted of DMEM (Dulbecco's modification of Eagle's medium) containing foetal calf serum (10%), glutamine (2 mM), penicillin (100 u/ml) and streptomycin (100 μg/ml). The J774 cells were pre-treated with the PPAR delta activators A and B, or vehicle, for 6 hours prior to, and for 24 hours subsequent to the addition of LPS (typically, a concentration of 1 ug/ml of LPS was used). Twenty-four hours after the addition of LPS, INOS activity was measured by the following method. […] After incubation at 37° C. for 3 hours, fluorescence from each well was measured at an excitation wavelength of 485 nm, and an emission wavelength of 530 nm. The ability of LPS to induce INOS activity, in the presence and absence of PPAR delta activators, was then calculated. […]

Question: With `Cc1cc(SCc2sc(-c3ccc(C(F)(F)F)cc3)nc2C)ccc1OCC(=O)O` [Compound A, 2-{2-methyl-4-[({4-methyl-2-[4-(trifluoromethyl)phenyl]-1,3-thiazol-5-yl}methyl)sulfanyl]phenoxy}acetic Acid] as the compound, how does the “inhibition of LPS-induced INOS activity” value read?
Answer: marked inhibition

Question: Which “inhibition of LPS-induced INOS activity” value does the source give for `Cc1cc(SCc2sc(-c3ccc(C(F)(F)F)c(F)c3)nc2C)ccc1OCC(=O)O` [Compound B, 2-{2-methyl-4-[({4-methyl-2-[3-fluoro-4-(trifluoromethyl)phenyl]-1,3-thiazol-5-yl}methyl)sulfanyl]phenoxy}acetic Acid] here?
Answer: marked inhibition
